Reference: PubChem BioAssay (NCI)
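All cell lines were grown in 96-well plates and treated with compound for 48 hours. GI50 marks 50% less growth. The concentration for full growth arrest is given as TGI.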

What was measured:
Test in all cases: inhibition of tumour cell growth, NCI panel, 48 h
[1] = tested on: LOX IMVI melanoma
[2] = tested on: RXF 393 renal
[3] = tested on: SNB-75 CNS
[4] = tested on: A498 renal
[5] = tested on: SN12C renal
[6] = tested on: KM12 colon
[7] = tested on: SF-295 CNS
[8] = tested on: HOP-62 NSCLC
[9] = tested on: ACHN renal
[10] = tested on: SNB-19 CNS
[11] = tested on: TK-10 renal
[12] = tested on: SF-268 CNS
[13] = tested on: HCC-2998 colon
[14] = tested on: HS 578T breast
[15] = tested on: HCT-15 colon
[16] = tested on: M14 melanoma
[17] = tested on: OVCAR-8 ovarian
[18] = tested on: UACC-257 melanoma
[19] = tested on: RPMI-8226 leukemia
[20] = tested on: OVCAR-4 ovarian
[21] = tested on: U251 CNS
[22] = tested on: UO-31 renal
[23] = tested on: K-562 leukemia
[24] = tested on: HL-60(TB) leukemia
[25] = tested on: SR leukemia
[26] = tested on: MOLT-4 leukemia
[27] = tested on: NCI-H23 lung
[28] = tested on: SK-MEL-28 melanoma
[29] = tested on: HCT-116 colon
[30] = tested on: MDA-MB-435
[31] = tested on: OVCAR-3 ovarian
[32] = tested on: MCF7 breast
[33] = tested on: NCI/ADR-RES ovarian
[34] = tested on: SK-OV-3 ovarian
[35] = tested on: NCI-H522 lung
[36] = tested on: COLO 205 colon
[37] = tested on: CAKI-1 renal
[38] = tested on: OVCAR-5 ovarian
[39] = tested on: BT-549 breast
[40] = tested on: CCRF-CEM leukemia
[41] = tested on: A549 NSCLC
[42] = tested on: MALME-3M melanoma
[43] = tested on: NCI-H460 lung
[44] = tested on: SK-MEL-5 melanoma
[45] = tested on: MDA-MB-231 breast
[46] = tested on: SW-620 colon
[47] = tested on: SK-MEL-2 melanoma
[48] = tested on: SF-539 CNS
[49] = tested on: IGROV1 ovarian
[50] = tested on: NCI-H226 lung
[51] = tested on: 786-0 renal
[52] = tested on: T-47D breast
[53] = tested on: EKVX NSCLC
[54] = tested on: PC-3 prostate
[55] = tested on: UACC-62 melanoma
[56] = tested on: HOP-92 NSCLC
[57] = tested on: HT29 colon
[58] = tested on: DU-145 prostate

Cc1ccc(-c2c(C#N)[n+](=O)c3cc(Cl)c(Cl)cc3n2[O-])cc1
GI50 [1]: 27.1 µM
TGI [1]: > 100 µM
GI50 [2]: 5.53 µM
TGI [2]: 12.6 µM
GI50 [3]: 18.2 µM
TGI [3]: 38.2 µM
GI50 [4]: 16.3 µM
TGI [4]: 30.4 µM
GI50 [5]: 30.5 µM
TGI [5]: 85.6 µM
GI50 [6]: 6.05 µM
TGI [6]: 26.6 µM
GI50 [7]: 19.4 µM
TGI [7]: 37.9 µM
GI50 [8]: 10.3 µM
TGI [8]: 26.7 µM
GI50 [9]: 5.27 µM
GI50 [10]: 14.4 µM
TGI [10]: > 47.1 µM
GI50 [11]: 16.7 µM
TGI [11]: 32.9 µM
GI50 [12]: 5.16 µM
TGI [12]: 18 µM
GI50 [13]: 4.76 µM
TGI [13]: 11.6 µM
GI50 [14]: 10.3 µM
TGI [14]: 48.9 µM
GI50 [15]: 29.9 µM
TGI [15]: > 100 µM
GI50 [16]: 4.95 µM
TGI [16]: 19.2 µM
GI50 [17]: 7.39 µM
TGI [17]: 23.1 µM
GI50 [18]: 4.89 µM
TGI [18]: 9.77 µM
GI50 [19]: 4.76 µM
TGI [19]: 16.7 µM
GI50 [20]: 10.8 µM
TGI [20]: 30.4 µM
GI50 [21]: 34.6 µM
TGI [21]: > 100 µM
GI50 [22]: 13.6 µM
TGI [22]: 35.7 µM
GI50 [23]: 2.56 µM
GI50 [24]: 2.5 µM
TGI [24]: > 100 µM
GI50 [25]: 2.13 µM
TGI [25]: > 100 µM
GI50 [26]: 1.55 µM
TGI [26]: 3.41 µM
GI50 [27]: 5.46 µM
TGI [27]: 13.1 µM
GI50 [28]: 3.98 µM
TGI [28]: 13.5 µM
GI50 [29]: 2.16 µM
GI50 [30]: 17.2 µM
TGI [30]: 35.2 µM
GI50 [31]: 8.29 µM
TGI [31]: 23.5 µM
GI50 [32]: 13.6 µM
TGI [32]: 34.9 µM
GI50 [33]: 5.86 µM
TGI [33]: 17.3 µM
GI50 [34]: 21.6 µM
TGI [34]: 47.1 µM
GI50 [35]: 12.9 µM
TGI [35]: > 67.4 µM
GI50 [36]: 8.97 µM
TGI [36]: 24.2 µM
GI50 [37]: 16.9 µM
TGI [37]: 32.2 µM
GI50 [38]: 6.02 µM
TGI [38]: 14.7 µM
GI50 [39]: 16.1 µM
TGI [39]: 35.5 µM
GI50 [40]: 2.95 µM
TGI [40]: 15.6 µM
GI50 [41]: 8.32 µM
TGI [41]: 23.3 µM
GI50 [42]: 7 µM
TGI [42]: 25.2 µM
GI50 [43]: 20 µM
TGI [43]: 41.3 µM
GI50 [44]: 13.9 µM
TGI [44]: 27.2 µM
GI50 [45]: 3.49 µM
GI50 [46]: 5.08 µM
TGI [46]: 11.8 µM
GI50 [47]: 17.3 µM
TGI [47]: 34.7 µM
GI50 [48]: 16.1 µM
TGI [48]: 35 µM
GI50 [49]: 3.41 µM
TGI [49]: > 36.9 µM
GI50 [50]: 40.4 µM
TGI [50]: > 100 µM
GI50 [51]: 13.4 µM
TGI [51]: 30.1 µM
GI50 [52]: 5.98 µM
TGI [52]: 16.3 µM
GI50 [53]: 21.5 µM
TGI [53]: 45.4 µM
GI50 [54]: 6.88 µM
TGI [54]: 18.5 µM
GI50 [55]: > 47 µM
TGI [55]: > 69.4 µM
GI50 [56]: 6 µM
TGI [56]: 13.7 µM
GI50 [57]: 2.94 µM
TGI [57]: 11 µM
GI50 [58]: 17 µM
TGI [58]: 33.2 µM
